Assay results from patent US20150328329A1, “LIGANDS THAT TARGET HCV-E2 BINDING SITES ON CD81 AND THERAPEUTIC METHODS USING THEM” (American University of Cairo, priority 2012, published 2015).
Each block holds one molecule with its values, some of them ahead of it.

Legend:
[1] = biological target: T1, recombinant CD81-LEL (Homo sapiens, UniProt P60033); assay: SPR (Biacore T100) binding of additional ligands to immobilized CD81-LEL (Example 6); conditions: Table E, ligand 200 uM in PBS-1% DMSO
T1 construct: the large extracellular loop of CD81 (CD81-LEL); GST; His; Shoshana Levy Lab, Stanford (gift)
T1 sequence (P60033 113-201 limits assumed): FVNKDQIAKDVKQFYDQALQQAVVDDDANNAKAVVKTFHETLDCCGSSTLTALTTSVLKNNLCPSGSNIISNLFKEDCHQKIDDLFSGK
Experimental: SPR analysis was performed using a Biacore T100 workstation (GE Healthcare, NJ, USA). A recombinant form of the CD81-LEL protein with a GST-tag (Shoshana Levy Lab-Stanford) was used to determine the binding affinities of the ligands in the above list. 10 uM CD81-LEL-His diluted into 10 mM sodium acetate buffer pH 4.5 was immobilized for […] at a flow speed of 5 ul/min onto a CM5 sensor chip using amine coupling (EDC-NHS). Approximately 20,000 RU of protein were immobilized on the chip. The ligands were prepared as 200 uM solutions in PBS-1% DMSO (the running buffer) and they were introduced to the protein using a pre-programmed 3 min association and 1 min dissociation interval. Ligands that bind have a positive RU (response units) number and the strength of binding to the CD81 protein is related to the magnitude of the RU number; the larger the number the more binding.

[2] = biological target: T2, native CD81 on Raji cells (Homo sapiens, UniProt P60033); assay: Competition assay: inhibition of FITC-labeled JS-81 anti-CD81 antibody binding to native CD81 on live Raji cells (flow cytometry); assay type: cell-based
T2 construct: endogenous in cells; host or cells: Raji (human B cell line)
T2 sequence (P60033 1-236): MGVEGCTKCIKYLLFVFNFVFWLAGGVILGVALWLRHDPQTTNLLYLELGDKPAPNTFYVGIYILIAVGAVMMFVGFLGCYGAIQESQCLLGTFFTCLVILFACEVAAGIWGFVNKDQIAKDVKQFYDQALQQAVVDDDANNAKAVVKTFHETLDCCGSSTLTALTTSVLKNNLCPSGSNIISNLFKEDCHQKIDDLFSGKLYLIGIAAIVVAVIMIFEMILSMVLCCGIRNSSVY
Excerpt: A subset of these ligands and some of those listed in the patent have been tested to identify those ligands that bind to the correct region of the CD81 protein and for binding to native CD81 on living cells (a Raji cell line). This assay tests three concentrations of the ligand to determine if the ligand is capable of inhibiting the binding of an antibody called JS-81. This antibody is known to bind to the region of the CD81 protein we have targeted. If the ligand decreases JS-81 binding as you increase the concentration of the ligand, it is 1) binding to native CD81 on the Raji cells and 2) it is binding to the correct region of the protein.
For antibody neutralization assay Raji cells were used, a human B cell line that expressed high amounts of CD81 on the surface (data not shown). Cells were grown in RPMI medium (10% FCS, 1% penicillin/streptomycin, 1% L-glutamine, 1% non-essential amino acids, 1% sodium pyruvate, pH 7.4, at 37° C. with 5% CO2). 2×10^5 cells were incubated with or without different concentrations (50 μM, 100 μM, 400 μM and 1 mM) of indicated inhibitor for 20 min at room temperature, subsequently 1 ul (16 ng/μl) of FITC-labeled anti CD81 antibody (BD Pharmingen, 551108) was added to the cells and incubated for 20 min (antibody titration was performed to obtain a working dilution range, data not shown). Cells were washed and analyzed by flow cytometry using fluorescence-activated cell sorting (FACS) (BD FACSCalibur, software: Cell Quest Pro). Mean Fluorescence Intensity MFI was calculated using Flowjo software (TreesStar, www.flowjo.com).

[3] = biological target: T3, recombinant CD81-LEL (GST tag) (Homo sapiens, UniProt P60033); assay: Surface plasmon resonance (Biacore T200) binding of ligands to immobilized recombinant CD81-LEL; conditions: Table A; ligand 600 μM in PBS-0.05% Tween-80; CD81-LEL-GST on CM5 chip
T3 construct: the large extracellular loop of CD81 (CD81-LEL); gift of Dr. Shoshana Levy, Stanford University
T3 sequence (P60033 113-201 limits assumed): T1 sequence (P60033 113-201 limits assumed)
Experimental: SPR analysis was performed using a Biacore T200 workstation (GE Healthcare, NJ, USA). A recombinant form of the CD81-LEL protein with a GST tag (generously provided by Dr. Shoshana Levy, Stanford University) was used to confirm, using an established experimental technique, the binding of several ligands to the protein. Briefly, 10 μM CD81-LEL-GST diluted into 10 mM Na-Acetate buffer pH 4.5 was immobilized for 15 min at a flow speed of 5 μl/min onto a CM5 sensor chip using amine-coupling (EDC-NHS). Approximately 20,000 RU of protein were immobilized on the chip. The ligands were prepared as 600 μM solutions in PBS-0.05% Tween-80 (the running buffer) and they were introduced to the protein using a pre-programmed 3 minute association and 1 minute dissociation interval.
The binding affinity of the most tightly bound ligand in the group selected for ligand conjugate design (Ligand 1) was estimated using data collected from a series of SPR binding experiments conducted at different ligand concentrations. To obtain the kinetic and affinity data needed to estimate the Kd, the original ligand was diluted serially with running buffer to produce seven different ligand concentrations: 1024 μM, […], 256 μM, 128 μM, 64 μM, 32 μM and 0 μM. Data were fitted using a monovalent binding model.
A total of 36 ligands were tested experimentally using surface Plasmon resonance (on a Biacore T200 instrument) to identify which of the molecules calculated to bind to Sites 1 and 2 on CD81 actually bind to a recombinant form of the protein (CD81-LEL). Twenty-six of the molecules provided a positive change in response units (RU) upon introduction to a chip containing the immobilized protein (Table A), indicating the ligands bound to the protein. The measured responses for the ligands that bound varied from 2.3 to 78.4 RU. Those ligands providing the largest responses tended to be molecules that were calculated to bind more deeply inside cavities in Site 1 (ligands 30930, 98026, 7436, 5069), Site 2 (ligands 127947, 38743) or Site 4 (ligands 78623, 16631).
Experimental analysis of ligand binding to recombinant CD81 LEL. Forty ligands calculated by AutoDock to bind to sites 1 and 2 on CD81-LEL were tested experimentally using surface Plasmon resonance as described in the Materials and Methods section. Ligand code numbers are those assigned by the National Cancer Institute. […] Because the binding experiments were performed by passing the same concentration of each ligand sequentially across the same protein coated chip using both techniques, the magnitude of the responses can be used to provide an approximate ranking of binding strength.

Binding (RU) [1]: 50.8 RU
Inhibition of JS-81 Binding (%) ([2]; 50 μM ligand): 0%
Inhibition of JS-81 Binding (%) ([2]; 100 μM ligand): 8%
Inhibition of JS-81 Binding (%) ([2]; 400 μM ligand): 26%
Compound: O=C(O)/C(=C/c1ccccc1)c1ccccc1 [Ligand 40614]

Binding (RU) [1]: 4.1 RU
Compound: O=C(Nc1ccc(Br)c2ccccc12)c1ccc2ccccc2c1O [Ligand 601359]

Binding (RU) [1]: 12.6 RU
Compound: N=C(N)NC(=S)Nc1ccc(Cl)cc1 [Ligand 403374]

Binding (RU) [1]: 10 RU
Inhibition of JS-81 Binding (%) ([2]; 50 μM ligand): 0%
Inhibition of JS-81 Binding (%) ([2]; 100 μM ligand): 0%
Inhibition of JS-81 Binding (%) ([2]; 400 μM ligand): 17%
Compound: O=C(O)c1ccc(N2CCCCC2)cc1O [Ligand 23895]

Binding (RU) [1]: 5.4 RU
Compound: COc1cccc(C2Nc3cccc4cccc(c34)N2)c1 [Ligand 76823]

Binding (RU) [1]: 5.1 RU
Compound: CCNc1ccccc1C(=O)O [Ligand 16162]

Binding (RU) [1]: 14.7 RU
Inhibition of JS-81 Binding (%) ([2]; 50 μM ligand): 0%
Inhibition of JS-81 Binding (%) ([2]; 100 μM ligand): 0%
Inhibition of JS-81 Binding (%) ([2]; 400 μM ligand): 19%
Compound: CCC(C)(C)c1ccc(Oc2cccc(C(=O)O)c2)cc1 [Ligand 7962]

Binding (RU) [1]: 10 RU
Inhibition of JS-81 Binding (%) ([2]; 50 μM ligand): 0%
Inhibition of JS-81 Binding (%) ([2]; 100 μM ligand): 6%
Inhibition of JS-81 Binding (%) ([2]; 400 μM ligand): 26%
Compound: NS(=O)(=O)c1ccc(/N=N/c2c(O)c(C(=O)O)cc3ccccc23)cc1 [Ligand 134137]

Binding (RU) [1]: 9.6 RU
Compound: Cn1ncc2c(Nc3ccc(Br)cc3)nc(Nc3ccc(Br)cc3)nc21 [Ligand 11667]

Binding (RU) [1]: 7.4 RU
Compound: Cc1ccc(C)c(C(=O)CCC(=O)O)c1 [Ligand 215276]

Compound: O=C(O)c1[nH]c(=O)[nH]c(=O)c1F [Ligand 31712]
Binding (RU) [1]: 4.1 RU

SPR Response Units [3]: 61.8 RU
Compound: O=C(O)c1ccc(O)c(O)c1 [Ligand 16631]

Binding (RU) [1]: 3.4 RU
Compound: CCOc1cccc2cc(C(N)=O)c(=N)oc12 [Ligand 263636]

Binding (RU) [1]: 2.7 RU
Compound: Cc1ccc(NC(=S)NC(=O)c2ccccc2)cc1NC(=S)NC(=O)c1ccccc1 [Ligand 5856]

Binding (RU) [1]: 8.3 RU
Compound: O=C(O)c1ccc(OCCOc2ccccc2)cc1 [Ligand 120631]

Binding (RU) [1]: 4.6 RU
Compound: CC1CCCC(CC(=O)O)(CC(=O)O)C1 (stereo not drawn) [Ligand 3001]

Binding (RU) [1]: 18.9 RU
Inhibition of JS-81 Binding (%) ([2]; 50 μM ligand): 0%
Inhibition of JS-81 Binding (%) ([2]; 100 μM ligand): 1%
Inhibition of JS-81 Binding (%) ([2]; 400 μM ligand): 31%
Compound: O=C(O)Cn1ccc2ccccc21 [Ligand 75866]

Binding (RU) [1]: 4.3 RU
Compound: CC(OC(=O)Nc1cccc(Cl)c1)C(=O)O (stereo not drawn) [Ligand 73170]

Binding (RU) [1]: 1.8 RU
Compound: CC(C)(C)c1ccc(OCC(=O)O)cc1 [Ligand 8481]

inhibition at 50 µM ([2]; 50 μM ligand): 0%
inhibition at 100 µM ([2]; 100 μM ligand): 0%
inhibition at 400 µM ([2]; 400 μM ligand): 14%
Compound: NC(=O)c1ccc2c(c1)S(=O)(=O)c1ccccc1C2=O [Ligand 689002, 9-Oxo-9H-thioxanthene-3-carboxamide 10,10-dioxide]

Inhibition of JS-81 Binding (%) ([2]; 50 μM ligand): 0%
Inhibition of JS-81 Binding (%) ([2]; 100 μM ligand): 0%
Inhibition of JS-81 Binding (%) ([2]; 400 μM ligand): 52%
Compound: CNC1(C(N)=O)CCNCC1 [Ligand 75846]

Binding (RU) [1]: 5.4 RU
Compound: O=c1[nH]c2ccccc2n1C1=CCNCC1 [Ligand 88883]

Binding (RU) [1]: 5.9 RU
Compound: O=C(O)c1ccccc1NCc1ccco1 [Ligand 331931]
